From patent publication US6468976B1 (AstraZeneca AB, priority 2001, dated 2002)

Tests used:
[1] = stability / hygroscopicity on standing at ambient conditions; assay type: physicochemical; conditions: for hygroscopicity / stability at room temperature and humidity: standard room temperature and humidity; for stability under ambient conditions: thermogravimetric analysis after 5 hours standing at ambient conditions
Protocol: The partially dehydrated material was allowed to stand for about 5 hours.

[2] = cited from earlier work
crystal size by SEM = assay type: physicochemical
Text: In contrast, the crystals of monohydrate form 2 are much smaller, and in a narrower size range, than those of monohydrate form 1, typically 5 μm or less in edge length.

SMILES	hygroscopicity / stability at room temperature and humidity [1]	stability under ambient conditions [1]	also measured
NCCCC[C@H](N[C@@H](CCc1ccccc1)C(=O)O)C(=O)N1CCC[C@H]1C(=O)O.O [Preparation 3]	strongly hygroscopic	regained the lost weight and to have become a dihydrate	–
NCCCC[C@H](N[C@@H](CCc1ccccc1)C(=O)O)C(=O)N1CCC[C@H]1C(=O)O [lisinopril, 1-(N^2-[(S)-1-carboxy-3-phenylpropyl]-L-lysyl)-L-proline]	–	–	time to peak serum concentrations ([2]; following oral administration): ≤ 7 h; effective half-life of accumulation ([2]; on multiple dosing): about 12.6 hours
NCCCC[C@H](N[C@@H](CCc1ccccc1)C(=O)O)C(=O)N1CCC[C@H]1C(=O)O [monohydrate lisinopril form 1, 1-(N^2-[(S)-1-carboxy-3-phenylpropyl]-L-lysyl)-L-proline]	stable at a standard room temperature and humidity	stable under ambient conditions	crystal size (length / edge length) (crystal size by SEM; listed as monohydrate form 1): 50 to 500 μm
NCCCC[C@H](N[C@@H](CCc1ccccc1)C(=O)O)C(=O)N1CCC[C@H]1C(=O)O [monohydrate lisinopril form 2, 1-(N^2-[(S)-1-carboxy-3-phenylpropyl]-L-lysyl)-L-proline]	–	–	crystal size (length / edge length) (crystal size by SEM; listed as monohydrate form 2): ≤ 5 μm
